Test results published in PubChem BioAssay AID270 (DTP/NCI, 2004).
Values joined by “and” are separate entries in the source; they are usually repeats but may differ in a detail not shown here. Equal values may be shown once. Inconclusive results are not listed.

Tested on: BDF1 mice, s.c. Lewis lung carcinoma, T/C %
Assay: NCI In Vivo Anticancer Drug Screen. Data for tumor model Lewis Lung Carcinoma (subcutaneous) in B6D2F1 (BDF1) mice
Outline: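 Transplanted tumors grown in mice; compound vs vehicle dosing; endpoint survival or tumor size; ratio T/C.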

[1] = endpoint: median survival time, dose: 12.5 mg/kg/injection, schedule: Q01DX009 (ip), vehicle: Klucel (hydroxypropylcellulose) (HPC), higher = longer survival
[2] = endpoint: median survival time, dose: 0.75 mg/kg/injection, schedule: Q01DX009 (ip), vehicle: saline, higher = longer survival
[3] = endpoint: median survival time, dose: 1.5 mg/kg/injection, schedule: Q01DX009 (ip), vehicle: saline, higher = longer survival

O=[N+]([O-])c1ccc(/C=N\Nc2ccc([N+](=O)[O-])cn2)cc1
T/C [1]: 88 % of control | T/C (endpoint: median survival time, dose: 25.0 mg/kg/injection, schedule: Q01DX009 (ip), vehicle: Klucel (hydroxypropylcellulose) (HPC), higher = longer survival): 104 % of control

COC1C(OC(=O)/C=C/C=C/C=C/C=C/C(=O)O)CCC2(CO2)C1C1(C)OC1CC=C(C)C (stereo unspecified)
T/C (endpoint: mean tumor weight, dose: 25.0 mg/kg/injection, schedule: Q01DX011 (ip), vehicle: saline, higher = larger tumour): 82 % of control | T/C (endpoint: mean tumor weight, dose: 50.0 mg/kg/injection, schedule: Q01DX011 (ip), vehicle: saline, higher = larger tumour): 38 % of control and 49 % of control | T/C (endpoint: mean tumor weight, dose: 100.0 mg/kg/injection, schedule: Q01DX011 (ip), vehicle: saline, higher = larger tumour): 54 % of control | T/C (endpoint: mean tumor weight, dose: 200.0 mg/kg/injection, schedule: Q01DX011 (ip), vehicle: saline, higher = larger tumour): 23 % of control

O=NN(CCCl)C(=O)NC1C2CC3CC(C2)CC1C3 (stereo unspecified)
T/C (endpoint: median survival time, dose: 10.0 mg/kg/injection, schedule: Q01DX001 (ip), vehicle: Klucel (hydroxypropylcellulose) (HPC), higher = longer survival): 99 % of control and 111 % of control | T/C (endpoint: median survival time, dose: 20.0 mg/kg/injection, schedule: Q01DX001 (ip), vehicle: Klucel (hydroxypropylcellulose) (HPC), higher = longer survival): 100 % of control | T/C (endpoint: median survival time, dose: 25.0 mg/kg/injection, schedule: Q01DX001 (ip), vehicle: saline with Tween-80, higher = longer survival): 102 % of control | T/C (endpoint: median survival time, dose: 38.0 mg/kg/injection, schedule: Q01DX001 (ip), vehicle: saline with Tween-80, higher = longer survival): 101 % of control | T/C (endpoint: median survival time, dose: 40.0 mg/kg/injection, schedule: Q01DX001 (ip), vehicle: Klucel (hydroxypropylcellulose) (HPC), higher = longer survival): 106 % of control | T/C (endpoint: median survival time, dose: 57.0 mg/kg/injection, schedule: Q01DX001 (ip), vehicle: saline with Tween-80, higher = longer survival): 96 % of control | T/C (endpoint: median survival time, dose: 80.0 mg/kg/injection, schedule: Q01DX001 (ip), vehicle: Klucel (hydroxypropylcellulose) (HPC), higher = longer survival): 110 % of control | T/C (endpoint: median survival time, dose: 85.0 mg/kg/injection, schedule: Q01DX001 (ip), vehicle: saline with Tween-80, higher = longer survival): 99 % of control and 121 % of control | T/C (endpoint: median survival time, dose: 160.0 mg/kg/injection, schedule: Q01DX001 (ip), vehicle: Klucel (hydroxypropylcellulose) (HPC), higher = longer survival): 113 % of control | T/C (endpoint: median tumor weight (est.), dose: 25.0 mg/kg/injection, schedule: Q01DX001 (ip), vehicle: DMSO, higher = larger tumour): 39 % of control | T/C (endpoint: median tumor weight (est.), dose: 25.0 mg/kg/injection, schedule: Q01DX001 (sc), vehicle: olive oil, sesame oil, peanut oil, higher = larger tumour): 80 % of control | T/C (endpoint: median tumor weight (est.), dose: 38.0 mg/kg/injection, schedule: Q01DX001 (sc), vehicle: olive oil, sesame oil, peanut oil, higher = larger tumour): 60 % of control | T/C (endpoint: median tumor weight (est.), dose: 57.0 mg/kg/injection, schedule: Q01DX001 (ip), vehicle: DMSO, higher = larger tumour): 3 % of control | T/C (endpoint: median tumor weight (est.), dose: 57.0 mg/kg/injection, schedule: Q01DX001 (sc), vehicle: olive oil, sesame oil, peanut oil, higher = larger tumour): 52 % of control | T/C (endpoint: median tumor weight (est.), dose: 80.0 mg/kg/injection, schedule: Q01DX001 (ip), vehicle: saline with Tween-80, higher = larger tumour): 53 % of control | T/C (endpoint: median tumor weight (est.), dose: 85.0 mg/kg/injection, schedule: Q01DX001 (sc), vehicle: olive oil, sesame oil, peanut oil, higher = larger tumour): 36 % of control | T/C (endpoint: median tumor weight (est.), dose: 161.0 mg/kg/injection, schedule: Q01DX001 (ip), vehicle: saline with Tween-80, higher = larger tumour): 60 % of control | T/C (endpoint: median tumor weight (est.), dose: 215.0 mg/kg/injection, schedule: Q01DX001 (ip), vehicle: saline with Tween-80, higher = larger tumour): 7 % of control

Cc1ccc(S(=O)(=O)[O][Pb]([CH3])([CH3])[CH3])cc1
T/C (endpoint: median survival time, dose: 0.18 mg/kg/injection, schedule: Q01DX009 (ip), vehicle: saline, higher = longer survival): 98 % of control and 122 % of control | T/C (endpoint: median survival time, dose: 0.37 mg/kg/injection, schedule: Q01DX009 (ip), vehicle: saline, higher = longer survival): 108 % of control | T/C [2]: 116 % of control | T/C [3]: 109 % of control

CC(C)=CC(=O)OCC[N+](C)(C)C
T/C (endpoint: median survival time, dose: 1.56 mg/kg/injection, schedule: Q01DX009 (ip), vehicle: saline, higher = longer survival): 96 % of control | T/C (endpoint: median survival time, dose: 3.12 mg/kg/injection, schedule: Q01DX009 (ip), vehicle: saline, higher = longer survival): 103 % of control | T/C (endpoint: median survival time, dose: 12.5 mg/kg/injection, schedule: Q01DX009 (ip), vehicle: saline, higher = longer survival): 103 % of control | T/C (endpoint: median survival time, dose: 25.0 mg/kg/injection, schedule: Q01DX009 (ip), vehicle: saline, higher = longer survival): 113 % of control

Nc1ncn(C2OC(CO)C(O)C2O)c(=O)n1 (stereo unspecified)
T/C [2]: 105 % of control and 112 % of control and 121 % of control | T/C [3]: 121 % of control and 124 % of control | T/C (endpoint: median survival time, dose: 3.0 mg/kg/injection, schedule: Q01DX009 (ip), vehicle: saline, higher = longer survival): 105 % of control and 110 % of control | T/C (endpoint: median tumor weight (est.), dose: 0.75 mg/kg/injection, schedule: Q01DX009 (ip), vehicle: saline, higher = larger tumour): 75 % of control | T/C (endpoint: median tumor weight (est.), dose: 1.5 mg/kg/injection, schedule: Q01DX009 (ip), vehicle: saline, higher = larger tumour): 73 % of control | T/C (endpoint: median tumor weight (est.), dose: 3.0 mg/kg/injection, schedule: Q01DX009 (ip), vehicle: saline, higher = larger tumour): 59 % of control

Cc1cc(N)c2cc(NC(=O)CCCCCCCCC(=O)Nc3ccc4nc(C)cc(N)c4c3)ccc2n1
T/C (endpoint: mean tumor weight, dose: 12.5 mg/kg/injection, schedule: Q01DX011 (ip), vehicle: other, higher = larger tumour): 108 % of control | T/C (endpoint: mean tumor weight, dose: 50.0 mg/kg/injection, schedule: Q01DX011 (ip), vehicle: other, higher = larger tumour): 61 % of control | T/C (endpoint: mean tumor weight, dose: 100.0 mg/kg/injection, schedule: Q01DX011 (ip), vehicle: other, higher = larger tumour): 38 % of control | T/C (endpoint: median survival time, dose: 0.05 mg/kg/injection, schedule: Q01DX009 (ip), vehicle: Klucel (hydroxypropylcellulose) (HPC), higher = longer survival): 105 % of control | T/C (endpoint: median survival time, dose: 0.1 mg/kg/injection, schedule: Q01DX009 (ip), vehicle: Klucel (hydroxypropylcellulose) (HPC), higher = longer survival): 102 % of control | T/C (endpoint: median survival time, dose: 0.19 mg/kg/injection, schedule: Q01DX009 (ip), vehicle: Klucel (hydroxypropylcellulose) (HPC), higher = longer survival): 100 % of control | T/C (endpoint: median survival time, dose: 0.38 mg/kg/injection, schedule: Q01DX009 (ip), vehicle: Klucel (hydroxypropylcellulose) (HPC), higher = longer survival): 105 % of control | T/C (endpoint: median survival time, dose: 0.75 mg/kg/injection, schedule: Q01DX009 (ip), vehicle: Klucel (hydroxypropylcellulose) (HPC), higher = longer survival): 92 % of control | T/C (endpoint: median survival time, dose: 1.5 mg/kg/injection, schedule: Q01DX009 (ip), vehicle: Klucel (hydroxypropylcellulose) (HPC), higher = longer survival): 96 % of control | T/C (endpoint: median survival time, dose: 3.0 mg/kg/injection, schedule: Q01DX009 (ip), vehicle: Klucel (hydroxypropylcellulose) (HPC), higher = longer survival): 92 % of control | T/C (endpoint: median survival time, dose: 3.12 mg/kg/injection, schedule: Q01DX009 (ip), vehicle: Klucel (hydroxypropylcellulose) (HPC), higher = longer survival): 94 % of control | T/C (endpoint: median survival time, dose: 6.25 mg/kg/injection, schedule: Q01DX009 (ip), vehicle: Klucel (hydroxypropylcellulose) (HPC), higher = longer survival): 104 % of control | T/C [1]: 105 % of control | T/C (endpoint: median survival time, dose: 100.0 mg/kg/injection, schedule: Q01DX009 (ip), vehicle: Klucel (hydroxypropylcellulose) (HPC), higher = longer survival): 118 % of control

C=C(C)C(=O)OCCN(C)C (tested in a mixture with another compound)
T/C (endpoint: median survival time, dose: 50.0 mg/kg/injection, schedule: Q01DX009 (ip), vehicle: other, higher = longer survival): 102 % of control | T/C (endpoint: median survival time, dose: 100.0 mg/kg/injection, schedule: Q01DX009 (ip), vehicle: other, higher = longer survival): 103 % of control | T/C (endpoint: median survival time, dose: 200.0 mg/kg/injection, schedule: Q01DX009 (ip), vehicle: other, higher = longer survival): 108 % of control | T/C (endpoint: median survival time, dose: 400.0 mg/kg/injection, schedule: Q01DX009 (ip), vehicle: other, higher = longer survival): 102 % of control

CC(C)n1c2c([n+](C)c1/C=C/c1ccccc1)C(=O)c1ccccc1C2=O
T/C (endpoint: median survival time, dose: 0.5 mg/kg/injection, schedule: Q01DX009 (ip), vehicle: saline, higher = longer survival): 96 % of control | T/C (endpoint: median survival time, dose: 1.0 mg/kg/injection, schedule: Q01DX009 (ip), vehicle: saline, higher = longer survival): 110 % of control

[O-][n+]1c(CCl)nc2cccc3c2c1-c1ccccc1-3
T/C (endpoint: median survival time, dose: 25.0 mg/kg/injection, schedule: Q01DX009 (ip), vehicle: saline with Tween-80, higher = longer survival): 106 % of control and 111 % of control | T/C (endpoint: median survival time, dose: 50.0 mg/kg/injection, schedule: Q01DX009 (ip), vehicle: saline with Tween-80, higher = longer survival): 112 % of control and 118 % of control | T/C (endpoint: median survival time, dose: 100.0 mg/kg/injection, schedule: Q01DX009 (ip), vehicle: saline with Tween-80, higher = longer survival): 94 % of control

C[C@]12CC[C@@H]3c4ccccc4CC[C@H]3[C@@H]1CC[C@@H]2O
T/C (endpoint: mean tumor weight, dose: 43.8 mg/kg/injection, schedule: Q01DX011 (sc), vehicle: steriod suspending solution, higher = larger tumour): 71 % of control | T/C (endpoint: mean tumor weight, dose: 87.5 mg/kg/injection, schedule: Q01DX011 (sc), vehicle: steriod suspending solution, higher = larger tumour): 51 % of control | T/C (endpoint: mean tumor weight, dose: 125.0 mg/kg/injection, schedule: Q01DX011 (sc), vehicle: steriod suspending solution, higher = larger tumour): 120 % of control | T/C (endpoint: mean tumor weight, dose: 175.0 mg/kg/injection, schedule: Q01DX011 (sc), vehicle: steriod suspending solution, higher = larger tumour): 56 % of control | T/C (endpoint: mean tumor weight, dose: 250.0 mg/kg/injection, schedule: Q01DX011 (sc), vehicle: steriod suspending solution, higher = larger tumour): 45 % of control and 69 % of control | T/C (endpoint: mean tumor weight, dose: 350.0 mg/kg/injection, schedule: Q01DX011 (sc), vehicle: steriod suspending solution, higher = larger tumour): 32 % of control | T/C (endpoint: mean tumor weight, dose: 400.0 mg/kg/injection, schedule: Q01DX011 (sc), vehicle: steriod suspending solution, higher = larger tumour): 14 % of control | T/C (endpoint: mean tumor weight, dose: 600.0 mg/kg/injection, schedule: Q01DX011 (sc), vehicle: steriod suspending solution, higher = larger tumour): 22 % of control | T/C (endpoint: mean tumor weight, dose: 1000.0 mg/kg/injection, schedule: Q01DX011 (sc), vehicle: steriod suspending solution, higher = larger tumour): 35 % of control and 54 % of control

O=[N+]([O-])c1ccccc1CSc1ncnc2nc[nH]c12
T/C (endpoint: mean tumor weight, dose: 15.6 mg/kg/injection, schedule: Q01DX011 (ip), vehicle: other, higher = larger tumour): 38 % of control | T/C (endpoint: mean tumor weight, dose: 31.3 mg/kg/injection, schedule: Q01DX011 (ip), vehicle: other, higher = larger tumour): 86 % of control | T/C (endpoint: mean tumor weight, dose: 62.5 mg/kg/injection, schedule: Q01DX011 (ip), vehicle: other, higher = larger tumour): 82 % of control | T/C (endpoint: mean tumor weight, dose: 125.0 mg/kg/injection, schedule: Q01DX011 (ip), vehicle: other, higher = larger tumour): 41 % of control

COc1cc2c3c(c1)/C(=N\Nc1ccccc1)CCN3CCC2
T/C (endpoint: median survival time, dose: 0.78 mg/kg/injection, schedule: Q01DX009 (ip), vehicle: DMSO, higher = longer survival): 112 % of control | T/C (endpoint: median survival time, dose: 3.0 mg/kg/injection, schedule: Q01DX009 (ip), vehicle: DMSO, higher = longer survival): 124 % of control
